The values that follow come from patent US9464064B2, “HCV helicase inhibitors and methods of use thereof” (University of Kansas, priority 2011, dated 2016).

SMILES strings stand for the structures. Read-outs that look alike come from different tables or passages of the source.

By IC50 is commonly meant the concentration at which inhibition is half-maximal. Broadly, the EC50 is the concentration that produces a half-maximal response.

Data set [1] relates to Huh-7.5 cells. The data set can be described thus: Cell viability assay ([…]-GLO). It is filed as cell-based, human. Conditions: for Cell viability (% viable): 10 μM compound, triplicate, average ± SD. The method, then: To assess compound toxicity toward Huh-7.5 cells, cells were plated and treated as above and cell viability was assessed using the […]-GLO luminescent cell viability kit (PROMEGA) following the manufacturer's instructions. Briefly, at the end of a 72 hour incubation period, the medium was aspirated and the cells were washed with 1×PBS, then an equal volume of growth medium and […]-GLO reagent was added and the lysis was initiated by mixing on an orbital shaker. The plate was incubated at 23° C. for 30 minutes and the luciferase activity was measured for 1 second using the FLUOSTAR Omega microplate reader (BMG Labtech).

In data set [2] the target is T1, E. coli SSB-Cy5-dT15 complex (Escherichia coli, UniProt P0AGE0).
T1 construct: purchased Promega
The data set can be described thus: Escherichia coli SSB Cy5-dT15 binding assay (fluorescence polarization). The following applies: for inhibition at 100 µM: read-out: SSB % Displaced @ 100 μM. Put shortly: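 Compounds in DMSO (final 1% for screening, 5% for IC50 determination) added to MOPS pH 7.5 buffer with MgCl2, BSA, Tween 20 and DTT containing 20 nM SSB and 5 nM Cy5-dT15 probe. Displacement followed by polarization at 667 nm after 635 nm excitation.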
Background: Fluorescence polarisation rises when a labelled molecule tumbles more slowly, as on binding a larger partner.

For data set [3], the target named is T2, HCV NS3 helicase NS3h_1b(con1) (Hepatitis C virus genotype 1b, UniProt Q9WMX2).
T2 construct: truncated C-terminally His-tagged NS3 proteins lacking the N-terminal protease, called NS3h; His-tag (C); made in house
The data set can be described thus: biochemical. It is filed as biochemical, hepatitis C virus genotype 1b(con1). Put shortly: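 Molecular beacon helicase assay with His-tagged recombinant NS3 and a Cy5/IBRQ-labelled partially duplex DNA substrate (25 bp) or Tye665-labelled RNA substrate (19 bp). Reactions started with 1 mM ATP. Screening read fluorescence before and 30 min after ATP (ex 643/em 670 nm). For IC50, 5% v/v DMSO was present, initial velocities came from first-order decay fits, and a Hill equation was applied.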

Data set [4] has as its system MBHA DNA substrate. Description: Modified FID assay, SYBR Green I. It is filed as binding. Conditions: for DNA binding (%): SYBR Green I-FID, average (±SD) percent bound at 100 μM. The method, boiled down:
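Affinity for the MBHA DNA substrate (0.32 μM) estimated by displacement of SYBR Green I (0.68 μM), ethidium bromide omitted. Each compound titrated in triplicate over three independent runs; EC50 from concentration-response fit, reported ± standard deviation.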

Where [5] appears, read: disruption of Cy5-dT15-SSB complex, read-out: Cy5-dT15-SSB Binding IC50.
The mark [6] stands for this setting: MBHA, DNA unwinding, mean ± SD of three titrations, read-out: Helicase IC50.
Where [7] appears, read: genotype 1b (con1), read-out: Target Potency MBHA (IC50 avg., μM) 1b (con1).
Setting [8] is: standard HCV helicase MBHA (Table 9), read-out: DNA Unwinding IC50.
Where [9] appears, read: SYBR Green, read-out: FID (SG) EC50 (converted).
[10] abbreviates: DNA Unwinding IC50, standard HCV helicase MBHA (Table 9).
The mark [11] stands for this setting: Helicase IC50, MBHA, DNA unwinding, mean ± SD of three titrations.
Where [12] appears, read: Target Potency MBHA (IC50 avg., μM) 1b (con1), genotype 1b (con1).

T2 sequence (Q9WMX2 1192-1657): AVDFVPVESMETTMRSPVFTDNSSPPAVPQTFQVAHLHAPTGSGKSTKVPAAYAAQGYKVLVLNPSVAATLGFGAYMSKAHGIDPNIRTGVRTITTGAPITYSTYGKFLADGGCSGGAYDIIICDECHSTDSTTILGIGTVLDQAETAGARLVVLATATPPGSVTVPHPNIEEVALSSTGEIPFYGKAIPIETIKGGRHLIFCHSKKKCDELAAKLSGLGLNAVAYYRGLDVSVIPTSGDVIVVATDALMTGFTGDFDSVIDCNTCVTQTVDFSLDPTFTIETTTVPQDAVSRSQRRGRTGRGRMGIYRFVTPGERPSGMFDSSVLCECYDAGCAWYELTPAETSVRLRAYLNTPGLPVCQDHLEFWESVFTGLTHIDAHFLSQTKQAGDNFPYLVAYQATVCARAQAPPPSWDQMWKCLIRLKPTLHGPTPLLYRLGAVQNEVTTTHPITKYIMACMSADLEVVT
T1 sequence (P0AGE0 2-178, one chain of several): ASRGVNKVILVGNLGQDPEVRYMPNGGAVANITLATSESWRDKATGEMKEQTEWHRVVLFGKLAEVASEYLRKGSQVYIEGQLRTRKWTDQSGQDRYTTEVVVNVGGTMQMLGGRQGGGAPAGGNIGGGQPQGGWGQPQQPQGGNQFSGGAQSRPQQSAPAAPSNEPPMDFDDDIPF

As to `Cc1ccc2nc(-c3ccc4nc(-c5ccc(NC(=O)c6ccc(F)cc6)cc5)sc4c3)sc2c1S(=O)(=O)O.N` [Compound 7, 2′-(4-(4-fluorobenzamido)phenyl)-6-methyl-[2, bibenzo[d]thiazole]-7-sulfonic acid], the “Cell Viability (% @ 10 μM)” value in data set [1] is reported as 94 ± 2%. Also, in data set [1], the “Cell viability (% viable)” value was determined as 94 ± 2%. Moreover, the IC50 in data set [2] (setting [5]) stood at 14 ± 4 µM; in data set [3] (DNA-based MBHA, genotype 1b, read-out: DNA Helicase NS3h_1b IC50 (μM) ± SD), 5 ± 0.6 µM; in data set [3] (setting [6]), 5.2 ± 0.6 µM; in data set [3] (setting [7]) it was 5.2 ± 0.6 µM; in data set [3] (setting [8]), 5 ± 1 µM. The inhibition at 100 µM in data set [2] was 88%. Besides, the values for the EC50 in data set [2] (read-out: SSB EC50) and in data set [4] (setting [9]) were 14 ± 4 µM and more than 100 µM, respectively. Also, the “DNA binding (%)” value in data set [4] worked out at 35 ± 15%. Moreover, in data set [4] (SYBR Green), the “FID (SG) % Displaced @ 100 μM” value is reported as 35 ± 15%.

Turning to `COc1ccc(C(=O)Nc2ccc(-c3nc4ccc(-c5nc6ccc(C)c(S(=O)(=O)O)c6s5)cc4s3)cc2)cc1` [Compound 8, 2′-(4-(4-methoxybenzamido)phenyl)-6-methyl-[2,6′-bibenzo[d]thiazole]-7-sulfonic acid], the “Cell Viability (% @ 10 μM)” value in data set [1] is given as 85 ± 5%. The “Cell viability (% viable)” value in data set [1] is recorded as 85 ± 5%. Further, the EC50 was 2 ± 1 µM in data set [2] and more than 100 µM in data set [4] (setting [9]). Further, the IC50 was 2 ± 1 µM in data set [2], 10 ± 3 µM in data set [3] (setting [10]), 10 ± 2.6 µM in data set [3] (setting [11]) and 10 ± 2.6 µM in data set [3] (setting [12]). In addition, the inhibition at 100 µM in data set [2] was found to be 92%. Besides, the “DNA binding (%)” value in data set [4] was found to be 35 ± 10%. Besides, the “FID (SG) % Displaced @ 100 μM” value in data set [4] (SYBR Green) came to 35 ± 10%.

For the molecule `COC(=O)c1ccc(C(=O)Nc2ccc(-c3nc4ccc(-c5nc6ccc(C)c(S(=O)(=O)O)c6s5)cc4s3)cc2)cc1` [Compound 9, 2′-(4-(4-(methoxycarbonyl)benzamido)phenyl)-6-methyl-[2,6′-bibenzo[d]thiazole]-7-sulfonic acid], the “Cell Viability (% @ 10 μM)” value in data set [1] is 101 ± 8%. For the same molecule, the “Cell viability (% viable)” value in data set [1] was 101 ± 8%. In addition, the IC50 in data set [2] (setting [5]) came out at 1 µM; in data set [3] (setting [6]), 9.7 ± 4.6 µM; in data set [3] (setting [7]), 9.7 ± 4.6 µM; in data set [3] (setting [8]), 10 ± 5 µM. Also, in data set [2], the inhibition at 100 µM was 91%. Besides, the EC50 in data set [2] (read-out: SSB EC50) was 2 ± 0.5 µM; in data set [4] (setting [9]), more than 100 µM. Besides, the “DNA binding (%)” value in data set [4] was found to be 28 ± 10%. The “FID (SG) % Displaced @ 100 μM” value in data set [4] (SYBR Green) is 28 ± 10%.

In the case of `Cc1ccc2nc(-c3ccc4nc(-c5ccc(NC(=O)c6ccc(Cl)cc6)cc5)sc4c3)sc2c1S(=O)(=O)O` [Compound 10, 2′-(4-(4-chlorobenzamido)phenyl)-6-methyl-[2,6′-bibenzo[d]thiazole]-7-sulfonic acid], the “Cell Viability (% @ 10 μM)” value in data set [1] was 84 ± 6%. For the same molecule, in data set [1], the “Cell viability (% viable)” value was 84 ± 6%. The figures for the EC50 in data set [2] and in data set [4] (setting [9]) were 46 ± 52 µM and 31 ± 15 µM, respectively. The IC50 came out at 46 ± 52 µM in data set [2], 3 µM in data set [3] (setting [10]), 3.4 ± 0.3 µM in data set [3] (setting [11]) and 3.4 ± 0.3 µM in data set [3] (setting [12]). Further, the inhibition at 100 µM in data set [2] was determined as 80%. Moreover, the “DNA binding (%)” value in data set [4] was 67 ± 17%. In data set [4] (SYBR Green), the “FID (SG) % Displaced @ 100 μM” value is listed as 67 ± 17%.

With `Cc1ccc(C(=O)Nc2ccc(-c3nc4ccc(-c5nc6ccc(C)c(S(=O)(=O)O)c6s5)cc4s3)cc2)cc1` [Compound 11, 6-methyl-2′-(4-(4-methylbenzamido)phenyl)-[2,6′-bibenzo[d]thiazole]-7-sulfonic acid], the “Cell Viability (% @ 10 μM)” value in data set [1] is reported as 87 ± 4%. Moreover, the “Cell viability (% viable)” value in data set [1] worked out at 87 ± 4%. Moreover, the IC50 worked out at 5 ± 2 µM in data set [2] (setting [5]), 3.3 ± 0.3 µM in data set [3] (setting [6]), 3.3 ± 0.3 µM in data set [3] (setting [7]) and 3 µM in data set [3] (setting [8]). Also, the inhibition at 100 µM in data set [2] is 96%. Further, the 50% effective concentration (EC50) was 5 ± 2 µM in data set [2] (read-out: SSB EC50); more than 100 µM in data set [4] (FID, mean ± SD, read-out: DNA Binding (SYBR Green I) EC50); more than 100 µM in data set [4] (setting [9]). Besides, the “DNA binding (%)” value in data set [4] was found to be 50 ± 15%. Further, in data set [4] (SYBR Green), the “FID (SG) % Displaced @ 100 μM” value was found to be 50 ± 15%.
